Experimental data from patent US20240269145A1, “USE OF INDOLE COMPOUND AS INHIBITORS OF FERROPTOSIS” (MITOIMMUNE THERAPEUTICS INC., priority 2023, published 2024).

Tests used:
Assay in all cases: Cell death protection, LDH release after RSL3
Assay type in all cases: cell-based
MLE-12 = settings: MLE12, MLE-12, RSL3 1 μM, 24 hours
Description: (§1) To confirm the protective effect on cardiac cells, adrenal medulla cells, renal fibroblasts, retinal epithelial cells, lung epithelial cells, renal proximal tubule epithelial cells, hippocampal neurons, and fibroblasts, 4×10^3 to 1.2×10^4 cells of each cell type were dispensed into 96-well plates and cultured for 18 to 24 hours. Each well was treated with the example compound, which was diluted so that the final concentration became 0.001, 0.003, 0.01, 0.03, 0.1, 0.3, 1, 3, and 10 μM, and culture was performed for 15 to 20 minutes. […] To confirm the cell protecting effect of the example compounds, a cytotoxicity LDH assay kit [Dojindo; CK12] was used to measure the level of extracellular secretion of lactate dehydrogenase (LDH). Briefly, at the time point when the 24-hour treatment of each cell type with RSL3 ended, 70 μL of each supernatant from cell culture medium was taken and transferred to a new 96-well plate. After adding 70 μL/well (the same amount as the sample) of the assay buffer included in the kit, the resulting mixture was wrapped with foil and allowed to react at room temperature for 15 to 20 minutes. After observing the color change of the sample, 35 μL/well of a stop solution was added, and the absorbance value at 490 nm was measured using an iD3 spectrophotometer to calculate the EC50 value.
(§2) Table 3. Effect of protecting cardiac cells, adrenal medulla cells, renal fibroblasts, retinal epithelial cells, lung epithelial cells, renal proximal tubule epithelial cells, hippocampal neurons, and fibroblasts against cell death induced by RSL3.

NRK-49F = settings: Rattus norvegicus, RSL3 3 μM, 24 hours
Description: as §1, §2

HT-22 = settings: Mus musculus, HT-22, RSL3 0.3 μM, 24 hours
Description: as §1, §2

NIH/3T3 = settings: Mus musculus, NIH3T3, NIH/3T3, RSL3 3 μM, 24 hours
Description: as §1, §2

ARPE-19 = settings: Homo sapiens, ARPE-19, RSL3 0.3 μM, 24 hours
Description: as §1, §2

PC-12 = settings: Rattus norvegicus, PC-12, RSL3 0.3 μM, 24 hours
Description: as §1, §2

HK-2 = settings: Homo sapiens, HK-2, RSL3 0.3 μM, 24 hours
Description: as §1, §2

H9C2 = settings: Rattus norvegicus, H9C2, RSL3 0.5 μM, 24 hours
Description: as §1, §2

| Structure (SMILES) | EC50 (MLE-12) [µM] | EC50 (NRK-49F) [µM] | EC50 (HT-22) [µM] | EC50 (NIH/3T3) [µM] | EC50 (ARPE-19) [µM] | EC50 (PC-12) [µM] | EC50 (HK-2) [µM] | EC50 (H9C2) [µM] |
| --- | --- | --- | --- | --- | --- | --- | --- | --- |
| CS(=O)(=O)N1CCC(Nc2cc(CN3CCS(=O)(=O)CC3)cc3cc(-c4ccccc4)[nH]c23)CC1 [Example 22, 4-((7-((1-(methylsulfonyl)piperidin-4-yl)amino)-2-phenyl-1H-indole-5-yl)methyl)thiomorpholine 1,1-dioxide] | ≤ 0.03 | 0.03 to 0.1 | 0.03 to 0.1 | 0.03 to 0.1 | ≤ 0.03 | 0.03 to 0.1 | 0.03 to 0.1 | 0.03 to 0.1 |
| CCOC(=O)c1cc(NC2CCCC2)c2[nH]c(-c3ccccc3)cc2c1 [Example 2, ethyl 7-(cyclopentylamino)-2-phenyl-1H-indole-5-carboxylate] | ≤ 0.03 | ≤ 0.03 | ≤ 0.03 | ≤ 0.03 | ≤ 0.03 | ≤ 0.03 | ≤ 0.03 | ≤ 0.03 |
| Cc1cc(NC2CCCC2)c2[nH]c(-c3ccccc3)cc2c1 [Example 33, N-cyclopentyl-5-methyl-2-phenyl-1H-indole-7-amine] | ≤ 0.03 | ≤ 0.03 | ≤ 0.03 | ≤ 0.03 | ≤ 0.03 | 0.03 to 0.1 | ≤ 0.03 | ≤ 0.03 |
| O=S1(=O)CCN(Cc2cc(NCC3CCOCC3)c3[nH]c(-c4ccccc4)cc3c2)CC1 [Example 6, 4-((2-phenyl-7-(((tetrahydro-2H-pyran-4-yl)methyl)amino)-1H-indol-5-yl)methyl)thiomorpholine 1,1-dioxide] | ≤ 0.03 | ≤ 0.03 | 0.03 to 0.1 | 0.03 to 0.1 | ≤ 0.03 | 0.03 to 0.1 | ≤ 0.03 | ≤ 0.03 |
